Structures are written as SMILES.

In the assay the test system is proton-gated cation channels in cultured mouse cortical neurons. Kind of assay: Whole cell patch clamp of proton-gated currents in cultured mouse cortical neurons. The assay is classed as cell-based. How it is done:
The following experiments were performed in voltage-or current clamp using conventional whole cell patch clamp methods [Hamill O P, Marty A, Neher E, Sakmann B and Sigworth F J: Improved patch-clamp techniques for high-resolution current recording from cells and cell-free membrane patches; Pflügers Arch. 1981 39 85-100]. The following salt solutions were used (where nothing else stated, the chemicals are available from Sigma): NaCl (140 mM), KCl (4 mM), CaCl2 (2 mM), MgCl2 (1 mM), Sucrose (30 mM; Available from Fluka Chemie, Buchs, Switzerland), HEPES (10 mM, pH 6-7.4). Solutions with pH<6 were buffered with MES (10 mM) in stead of HEPES. Solutions with no added Ca^2+ contained 3 mM MgCl2. Solutions with no added Na^+ contained 140 mM N-methyl-D-glucamine. For voltage clamp experiments, the extracellular solutions were added Tetrodotoxin (0.0003 mM; Available from Alomone Labs, Jerusalem, Israel) and Bicuculline Methiodide (0.005 mM; Available from RBI, MA, USA).
Intracellular solution for voltage clamp experiments: CsCl (120 mM), CsF (20 mM), MgCl2 (2 mM), EGTA (10 mM), HEPES (10 mM; pH=7.2). […]
For voltage clamp experiments, the cells were held at a holding voltage of −60 mV and at the start of each experiment the current was continuously measured for at least 30 sec. to ensure a stable leak current. […]
In general terms: In patch-clamp work, channel activity is measured electrically.

As to `N=C(N)NC(=O)c1nc(Cl)c(N)nc1N` [Amiloride, N-amidino-3,5-diamino-6-chloropyrazine-2-carboxamide], the “Effect on proton-gated currents” value (100 μM Amiloride, saline at pH 6, voltage clamp −60 mV) is given as “inhibited”. Further, the 50% inhibitory concentration (IC50) (cultured mouse cortical neuron, voltage clamp −60 mV, saline at pH 6, Hill equation fit, read-out: IC50, inhibition of proton-gated currents) came to 6.2 µM.

What is called IC50 is the concentration that gives 50% inhibition.

Source of the values: US7288653B2, “Inhibitors of proton-gated cation channels and their use in the treatment of ischaemic disorders” (PainCeptor Pharma Corporation, priority 1999, dated 2007).
